Source: ChEMBL document CHEMBL4265944, “Novel amide derivatives of 1,3-dimethyl-2,6-dioxopurin-7-yl-alkylcarboxylic acids as multifunctional TRPA1 antagonists and PDE4/7 inhibitors: A new approach for the treatment of pain” (Eur J Med Chem, 2018)

Tests used:
[1] = biological target: Transient receptor potential cation channel subfamily A member 1 (Homo sapiens) (UniProt O75762); assay: Antagonist activity at human TRPA1 expressed in HEK293 cells assessed as decrease in flufenamic acid-evoked increase in intracellular calcium level at 100 uM measured for 180 secs with 1 sec interval by Fluo4-AM dye-based fluorescence assay relative to control; format: cell-based
[2] = biological target: High affinity 3',5'-cyclic-AMP phosphodiesterase 7A (Homo sapiens, UniProt Q13946); assay: Inhibition of recombinant human PDE7A using cAMP as substrate after 10 mins by PDE-Glo Phosphodiesterase Assay
[3] = biological target: 3',5'-cyclic-AMP phosphodiesterase 4B (Homo sapiens, UniProt Q07343); assay: Inhibition of recombinant human PDE4B using cAMP as substrate after 10 mins by PDE-Glo Phosphodiesterase Assay
[4] = tested on: Mus musculus; assay: Antiinflammatory activity in formalin-induced nociception ip dosed Swiss CD-1 mouse model assessed as time spent on licking or biting formalin injected right hind paw […] measured during phase 2; format: functional; settings: Swiss CD-1, ip
[5] = tested on: Rattus norvegicus; assay: Anti-inflammatory activity in Wistar rat assessed as inhibition of carrageenan-induced paw edema at 100 mg/kg, ip measured at 2 hrs post dose relative to control; format: functional
[6] = tested on: Mus musculus; assay: Antiinflammatory activity in formalin-induced nociception Swiss CD-1 mouse model assessed as time spent on licking or biting formalin injected right hind paw during neurogenic phase at 10 mg/kg, ip measured during phase 2 (reference value: 158.3 +/- 12.34 sec); format: functional
[7] = tested on: Mus musculus; assay: Antiinflammatory activity in formalin-induced nociception Swiss CD-1 mouse model assessed as time spent on licking or biting formalin injected right hind paw during neurogenic phase at 5 mg/kg, ip measured during phase 2 (reference value: 158.3 +/- 12.34 sec); format: functional
[8] = tested on: Rattus norvegicus; assay: Anti-inflammatory activity in Wistar rat assessed as inhibition of carrageenan-induced paw edema at 40 mg/kg, ip measured at 3 hrs post dose relative to control; format: functional
[9] = tested on: Rattus norvegicus; assay: Anti-inflammatory activity in Wistar rat assessed as inhibition of carrageenan-induced paw edema at 20 mg/kg, ip measured at 2 hrs post dose relative to control; format: functional
[10] = biological target: Transient receptor potential cation channel subfamily A member 1 (Homo sapiens) (UniProt O75762); assay: Antagonist activity at human TRPA1 expressed in HEK293 cells assessed as decrease in flufenamic acid-evoked increase in intracellular calcium level at 10 uM measured for 180 secs with 1 sec interval by Fluo4-AM dye-based fluorescence assay relative to control; format: cell-based
[11] = biological target: Transient receptor potential cation channel subfamily A member 1 (Homo sapiens) (UniProt O75762); assay: Antagonist activity at human TRPA1 expressed in HEK293 cells assessed as decrease in flufenamic acid-evoked increase in intracellular calcium level at 1 uM measured for 180 secs with 1 sec interval by Fluo4-AM dye-based fluorescence assay relative to control; format: cell-based
[12] = tested on: Rattus norvegicus; assay: Anti-inflammatory activity in Wistar rat assessed as inhibition of carrageenan-induced paw edema at 40 mg/kg, ip measured at 1 hr post dose relative to control; format: functional
[13] = tested on: Rattus norvegicus; assay: Anti-inflammatory activity in Wistar rat assessed as inhibition of carrageenan-induced paw edema at 20 mg/kg, ip measured at 3 hrs post dose relative to control; format: functional
[14] = tested on: Rattus norvegicus; assay: Anti-inflammatory activity in Wistar rat assessed as inhibition of carrageenan-induced paw edema at 100 mg/kg, ip measured at 3 hrs post dose relative to control; format: functional
[15] = tested on: Mus musculus; assay: Antiinflammatory activity in formalin-induced nociception Swiss CD-1 mouse model assessed as time spent on licking or biting formalin injected right hind paw during neurogenic phase at 2.5 mg/kg, ip measured during phase 2 (reference value: 158.3 +/- 12.34 sec); format: functional
[16] = tested on: Mus musculus; assay: Antiinflammatory activity in formalin-induced nociception Swiss CD-1 mouse model assessed as time spent on licking or biting formalin injected right hind paw during neurogenic phase at 5 mg/kg, ip measured during phase 1 (reference value: 97 +/- 6.86 sec); format: functional
[17] = tested on: Rattus norvegicus; assay: Anti-inflammatory activity in Wistar rat assessed as inhibition of carrageenan-induced paw edema at 40 mg/kg, ip measured at 2 hrs post dose relative to control; format: functional
[18] = tested on: Mus musculus; assay: Antiinflammatory activity in formalin-induced nociception Swiss CD-1 mouse model assessed as time spent on licking or biting formalin injected right hind paw during neurogenic phase at 10 mg/kg, ip measured during phase 1 (reference value: 97 +/- 6.86 sec); format: functional
[19] = tested on: Rattus norvegicus; assay: Anti-inflammatory activity in Wistar rat assessed as inhibition of carrageenan-induced paw edema at 20 mg/kg, ip measured at 1 hr post dose relative to control; format: functional
[20] = tested on: Rattus norvegicus; assay: Anti-inflammatory activity in Wistar rat assessed as inhibition of carrageenan-induced paw edema at 100 mg/kg, ip measured at 1 hr post dose relative to control; format: functional
[21] = tested on: Mus musculus; assay: Antiinflammatory activity in formalin-induced nociception Swiss CD-1 mouse model assessed as time spent on licking or biting formalin injected right hind paw during neurogenic phase at 2.5 mg/kg, ip measured during phase 1 (reference value: 97 +/- 6.86 sec); format: functional

3',5'-cyclic-AMP phosphodiesterase 4B, sequence (Q07343 whole entry): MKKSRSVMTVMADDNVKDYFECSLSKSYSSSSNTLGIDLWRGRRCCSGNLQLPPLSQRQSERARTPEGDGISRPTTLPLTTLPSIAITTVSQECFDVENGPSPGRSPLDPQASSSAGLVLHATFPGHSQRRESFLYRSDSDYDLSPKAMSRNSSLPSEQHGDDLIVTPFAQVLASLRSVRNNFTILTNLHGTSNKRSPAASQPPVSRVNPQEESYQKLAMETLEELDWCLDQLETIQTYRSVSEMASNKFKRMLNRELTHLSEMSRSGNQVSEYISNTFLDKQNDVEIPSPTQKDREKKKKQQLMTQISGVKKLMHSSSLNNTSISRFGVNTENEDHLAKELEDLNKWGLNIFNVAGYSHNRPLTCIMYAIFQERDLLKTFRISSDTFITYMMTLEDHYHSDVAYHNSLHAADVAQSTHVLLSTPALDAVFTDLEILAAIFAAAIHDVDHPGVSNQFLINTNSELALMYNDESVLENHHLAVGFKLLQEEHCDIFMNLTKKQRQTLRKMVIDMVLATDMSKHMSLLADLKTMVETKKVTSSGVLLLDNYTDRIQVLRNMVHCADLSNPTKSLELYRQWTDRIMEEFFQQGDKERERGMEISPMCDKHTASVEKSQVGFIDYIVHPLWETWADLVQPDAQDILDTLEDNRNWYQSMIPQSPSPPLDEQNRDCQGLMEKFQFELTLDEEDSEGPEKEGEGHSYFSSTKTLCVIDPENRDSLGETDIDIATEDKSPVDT
Transient receptor potential cation channel subfamily A member 1 (Homo sapiens), sequence (O75762 whole entry): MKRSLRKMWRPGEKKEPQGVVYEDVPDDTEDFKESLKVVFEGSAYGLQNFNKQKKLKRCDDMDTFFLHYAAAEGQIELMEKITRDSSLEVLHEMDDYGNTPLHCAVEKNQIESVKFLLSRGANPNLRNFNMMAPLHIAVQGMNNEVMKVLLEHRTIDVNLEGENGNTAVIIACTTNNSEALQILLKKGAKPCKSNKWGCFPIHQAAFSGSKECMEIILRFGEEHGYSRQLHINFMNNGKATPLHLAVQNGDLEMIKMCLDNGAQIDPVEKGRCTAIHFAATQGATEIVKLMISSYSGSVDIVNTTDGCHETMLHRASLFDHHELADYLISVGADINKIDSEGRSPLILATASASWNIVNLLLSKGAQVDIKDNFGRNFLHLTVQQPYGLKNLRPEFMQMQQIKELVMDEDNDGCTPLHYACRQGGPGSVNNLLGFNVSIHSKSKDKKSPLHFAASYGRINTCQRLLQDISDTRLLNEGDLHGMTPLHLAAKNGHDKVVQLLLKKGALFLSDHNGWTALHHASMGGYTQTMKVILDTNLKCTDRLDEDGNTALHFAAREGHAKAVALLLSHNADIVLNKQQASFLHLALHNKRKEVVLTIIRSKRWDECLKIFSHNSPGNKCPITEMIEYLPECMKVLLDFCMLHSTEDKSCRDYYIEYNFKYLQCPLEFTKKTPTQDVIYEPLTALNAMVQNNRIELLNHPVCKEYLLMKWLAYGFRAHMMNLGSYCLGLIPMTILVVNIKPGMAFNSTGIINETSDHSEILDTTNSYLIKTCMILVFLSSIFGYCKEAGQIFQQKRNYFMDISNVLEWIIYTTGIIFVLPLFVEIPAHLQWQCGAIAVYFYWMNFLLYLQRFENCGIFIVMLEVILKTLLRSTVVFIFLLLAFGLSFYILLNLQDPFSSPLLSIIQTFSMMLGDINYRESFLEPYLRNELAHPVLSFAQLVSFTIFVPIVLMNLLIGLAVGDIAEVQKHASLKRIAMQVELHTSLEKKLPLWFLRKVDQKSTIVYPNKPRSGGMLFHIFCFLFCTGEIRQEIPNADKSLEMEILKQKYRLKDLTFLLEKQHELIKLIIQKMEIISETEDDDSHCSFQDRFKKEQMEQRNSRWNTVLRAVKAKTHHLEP
High affinity 3',5'-cyclic-AMP phosphodiesterase 7A, sequence (Q13946 whole entry): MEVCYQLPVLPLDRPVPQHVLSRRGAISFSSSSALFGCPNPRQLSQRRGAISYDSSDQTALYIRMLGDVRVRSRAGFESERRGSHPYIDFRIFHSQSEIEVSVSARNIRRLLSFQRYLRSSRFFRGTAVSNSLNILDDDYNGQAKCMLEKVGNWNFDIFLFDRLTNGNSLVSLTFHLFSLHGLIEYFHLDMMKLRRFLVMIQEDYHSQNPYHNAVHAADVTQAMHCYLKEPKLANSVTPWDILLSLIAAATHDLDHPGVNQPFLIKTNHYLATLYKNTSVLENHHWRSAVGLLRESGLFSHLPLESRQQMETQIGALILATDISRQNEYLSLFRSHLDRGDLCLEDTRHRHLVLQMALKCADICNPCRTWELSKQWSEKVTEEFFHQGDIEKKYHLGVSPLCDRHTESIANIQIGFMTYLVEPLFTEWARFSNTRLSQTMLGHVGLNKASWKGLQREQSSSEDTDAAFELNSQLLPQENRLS

Row | SMILES | inhibition [1] | IC50 [2] | IC50 [3] | other results
1 | COc1nc2c(c(=O)n(C)c(=O)n2C)n1CCCC(=O)Nc1ccc(C(C)(C)C)cc1 | 13% | 19.8 µM | 87.5 µM | 
2 | CCOc1nc2c(c(=O)n(C)c(=O)n2C)n1CCCC(=O)Nc1ccc(C(C)C)cc1 | 10% | 96.3 µM | 32.3 µM | 
3 | CC(C)c1ccc(NC(=O)Cn2cnc3c2c(=O)n(C)c(=O)n3C)cc1 | 43% | > 200 µM | > 200 µM | ED50 [4]: 33.8 mg/kg; inhibition in vivo at 100 mg/kg [5]: 48.2%; Time [6]: 13.9 s; Time [7]: 76.45 s; inhibition in vivo at 40 mg/kg [8]: 25.6%; inhibition in vivo at 20 mg/kg [9]: 0.02%; inhibition [10]: 13%; inhibition [11]: 0%; inhibition in vivo at 40 mg/kg [12]: 12.1%; inhibition in vivo at 20 mg/kg [13]: 10%; inhibition in vivo at 100 mg/kg [14]: 48.3%; Time [15]: 111.33 s; Time [16]: 73.83 s; inhibition in vivo at 40 mg/kg [17]: 23.5%; Time [18]: 71 s; inhibition in vivo at 20 mg/kg [19]: 4.7%; inhibition in vivo at 100 mg/kg [20]: 24.1%; Time [21]: 82.83 s
4 | COc1nc2c(c(=O)n(C)c(=O)n2C)n1CCCC(=O)NCc1ccccc1Cl | 16% | > 200 µM | > 200 µM | 
5 | CCOc1nc2c(c(=O)n(C)c(=O)n2C)n1CC(=O)Nc1cccc(Cl)c1 | 5% | > 200 µM | > 200 µM | 
6 | CCOc1nc2c(c(=O)n(C)c(=O)n2C)n1CC(=O)NCc1ccccc1Cl | 7% | > 200 µM | > 200 µM | 
7 | CCCCOc1nc2c(c(=O)n(C)c(=O)n2C)n1CCCC(=O)Nc1ccc(C(C)CC)cc1 (stereo not drawn) | 14% | 20 µM | 110 µM | 
8 | COc1nc2c(c(=O)n(C)c(=O)n2C)n1CC(=O)Nc1ccc(C(C)C)cc1 | 39% | > 200 µM | > 200 µM | inhibition [10]: 13%; inhibition [11]: 4%
9 | CCCOc1nc2c(c(=O)n(C)c(=O)n2C)n1CCCC(=O)Nc1cc(C(C)(C)C)ccc1O | 38% | 41.1 µM | 14.7 µM | inhibition [10]: 1%; inhibition [11]: 3%
10 | COc1nc2c(c(=O)n(C)c(=O)n2C)n1CCCC(=O)Nc1cccc(Cl)c1 | 9% | > 200 µM | > 200 µM | 
11 | COc1nc2c(c(=O)n(C)c(=O)n2C)n1CC(=O)Nc1cccc(Cl)c1 | 2% | > 200 µM | > 200 µM | 
12 | CCOc1nc2c(c(=O)n(C)c(=O)n2C)n1CCCC(=O)Nc1ccc(C(C)(C)C)cc1 | 0% | 54.3 µM | 42.5 µM | 
